Experimental findings from EPA's ToxValDB 9.5 are described below.

The structures appear in SMILES notation. Where “and” joins values, the source holds several entries; their conditions need not be identical. Equal entries are not always repeated. Structures can show the parent of a compound that is named as a salt.

The data set concerns Rattus norvegicus. The note with it: for LD50: acute.
Setting [1] is: subchronic, duration: 90 days, oral, gavage, M/F, hematological.
The mark [2] stands for this setting: subchronic, duration: 90 days, oral, diet, M/F, Sprague-Dawley, histopathology: nonneoplastic.
Where [3] appears, read: subchronic, duration: 90 days, oral, diet, M/F, Sprague-Dawley, no effects.
The mark [4] stands for this setting: subchronic, duration: 90 days, oral, diet, M/F, no effects.
The mark [5] stands for this setting: subchronic, duration: 13 weeks, oral, diet, M/F, Wistar, hematological.
[6] abbreviates: subchronic, duration: 90 days, oral, diet, M/F, Wistar, hematological.
The mark [7] stands for this setting: chronic, duration: 2 years, oral, diet.

In general, NOAEL refers to the highest tested level that showed no adverse finding. For the compound `CCOC(=O)CNC(=O)[C@@H]1C[C@H](C)CC[C@H]1C(C)C`, the NOAEL under setting [1] turned out to be 75 mg/kg-day. Compound `CC(C)[C@@H]1CC[C@@H](C)C[C@H]1C(=O)NCCc1ccccn1` (relative stereo) showed an NOAEL under setting [2] of 5 mg/kg-day. Where the note is “subchronic, duration: 90 days, oral, gavage, M/F, Wistar, histopathology: nonneoplastic”, `O=c1[nH]sc2ccccc12` [1,2-Benzisothiazolin-3-one] returned an NOAEL of 10 mg/kg-day. As to `CCC(S)S` [1,?1-?Propanedithiol], the NOAEL under setting [3] was 0.705 mg/kg-day (2×) and 0.703 mg/kg-day (2×).

Take `CC(=O)c1ccccn1` [1-(2-Pyridyl)-1-ethanone]: the NOAEL under setting [1] was determined as 37 mg/kg-day.

Regarding `CC(=O)c1ccc(C)[nH]1` [1-(5-Methyl-1H-pyrrol-2-yl)ethan-1-one], where the note is “subchronic, duration: 90 days, oral, gavage, M, hematological”, the NOAEL stood at 48 mg/kg-day. With `CC(=O)c1ccc2ccccc2c1` [2'-Acetonaphthone], the NOAEL reads like this: (subchronic, duration: 90 days) 33 mg/kg-day; under setting [4], 33 mg/kg-day.

In turn, `C[C@@H]1O[C@@H](O[C@H]2[C@H](O[C@@H]([C@H](O)[C@@H](O)C=O)[C@H](O)CO)O[C@H](CO)[C@H](O)[C@@H]2O)[C@@H](O)[C@H](O)[C@@H]1O` [2'-Fucosyllactose] displayed an NOAEL (subchronic, duration: 90 days, oral, gavage, M/F, Wistar, organ weight) of 2000 mg/kg-day. Compound `CC1CCCCC1NC(=O)c1c(F)c(F)c(F)c(F)c1F` (stereo not drawn) [2,3,4,5,6-Pentafluoro-N-(2-methylcyclohexyl)benzamide] displayed an NOAEL (subchronic, duration: 90 days, oral, diet, M/F, Wistar, clinical signs) of 55 mg/kg-day. Turning to `CC(C)CC1NC(CC(C)C)SC(CC(C)C)S1` (stereo not drawn) [2,4,6-Triisobutyl-5,6-dihydro-4H-1,3,5-dithiazine], the NOAEL (subchronic, duration: 90 days, oral, diet, M, histopathology: nonneoplastic) amounted to 9.3 mg/kg-day. `NS(=O)(=O)c1ccccc1C(F)(F)F` [2-(Trifluoromethyl)benzenesulfonamide] gave an NOAEL (short-term, duration: 28 days, organ weight) of 15 mg/kg-day.

The compound `O=Cc1cc2ccccc2o1` [2-Benzofurancarboxaldehyde] displayed an NOEL (subchronic, duration: 90 days, oral, diet) of 25 mg/kg-day. With `SCc1ccco1` [2-Furylmethanethiol], the NOAEL (subchronic, duration: 90 days, oral, gavage, M/F, body weight) worked out at 3 mg/kg-day. The compound `CCCCCC(C)=O` [2-Heptanone] returned an NOAEL (subchronic, duration: 13 weeks, oral, gavage, M/F, organ weight) of 20 mg/kg-day.

Under setting [5], `CC(=O)SC1=C(C)OCC1` [2-Methyl-3-thioacetoxy-4,5-dihydrofuran] showed an NOAEL of 1.4 mg/kg-day. Moreover, the NOEL under setting [6] stood at 1.4 mg/kg-day. For the compound `CC(C=O)=Cc1ccccc1` [2-Methylcinnamic aldehyde], the NOAEL under setting [4] came to 220 mg/kg-day. `CCCCCCCCCC(C)=O` [2-Undecanone] registered an NOAEL (subchronic, duration: 90 days, oral, clinical signs) of 50 mg/kg-day. The compound `CC1=C(S)CCO1` [2-methyl-4,5-dihydrofuran-3-thiol] yielded an NOAEL under setting [5] of 1.4 mg/kg-day. Besides, the NOEL under setting [6] was 1.4 mg/kg-day. On to `CCC1=C(O)C(=O)C(C)O1` (stereo not drawn) [3(2H)-Furanone, 5-ethyl-4-hydroxy-2-methyl-], for which the NOAEL (chronic, duration: 2 years, M/F, body weight) was 200 mg/kg-day. Where the note is “subchronic, duration: 90 days, oral, diet, M/F, Crj:CD, clinical signs”, `Cc1ccc(C(C)CC=O)o1` (stereo not drawn) [3-(5-Methyl-2-furyl)butanal] gave an NOAEL of 5.9 mg/kg-day. For the setting “oral, F, Wistar, mortality”, `Cn1cc(C(F)(F)F)cc(Cl)c1=O` [3-Chloro-1-methyl-5-(trifluoromethyl)pyridin-2-one] showed an LD50 of 124 mg/kg.

In turn, `CCCCCC/C=C/C(C)=O` [3-Decen-2-one] yielded an LD50 (oral, mortality) above 5000 mg/kg-day. The NOAEL (developmental, development) was at least 1000 mg/kg-day. Under “subchronic, duration: 13 weeks, oral, diet, M/F, Sprague-Dawley, no effects”, `Cc1sc2nc(=O)[nH]c(N)c2c1C` [4-Amino-5,6-dimethylthieno(2,3-d)pyrimidin-2(1H)-one] had a no observed adverse effect level (NOAEL) of 60 mg/kg-day. With `COc1cc(C=O)ccc1O` [4-Hydroxy-3-methoxybenzaldehyde], the NOAEL reads like this: (chronic, duration: 2 years) 1000 mg/kg-day; (subchronic, duration: 13 weeks, oral, gavage, no effects) 400 mg/kg-day.

Turning to `CC1=C(O)C(=O)CO1` [4-Hydroxy-5-methyl-3-furanone], the NOAEL (chronic, duration: 2 years, oral, diet, M/F, Sprague-Dawley, body weight) worked out at 200 mg/kg-day. Regarding `CC(C)(C)C1CCC(O)CC1` (stereo not drawn) [4-tert-Butylcyclohexanol], the NOAEL runs as follows: (reproduction developmental, clinical signs) 31.5 mg/kg-day; (short-term, duration: 28 days, clinical signs) 30 mg/kg-day. In the case of `Cc1ccc2oc(=O)ccc2c1` [6-Methyl coumarin], the NOEL (subchronic, duration: 13 weeks) came out at 150 mg/kg-day.

As for `C=CCc1ccc(OC(C)=O)c(OC)c1` [(2-Methoxy-4-prop-2-enylphenyl) acetate], where the note is “subchronic, duration: 90 days, clinical chemistry”, the NOAEL stood at 300 mg/kg-day. `C=C1CC[C@H]2O[C@]2(C)CC[C@@H]2[C@@H]1CC2(C)C` [(-)Carophyllene oxide] returned an NOAEL under setting [2] of 109 mg/kg-day. As for `C=C(C)[C@@H]1CC=C(C)CC1` [(S)-Limonene], the NOAEL (chronic, duration: 103 weeks, oral, gavage, F, mortality) came to 215 mg/kg-day. In turn, `CC(=O)N[C@@H]([C@@H](O)[C@H](O)[C@H](O)CO)[C@@H](O)CC(=O)C(=O)O` [Aceneuramic acid] returned a no observed adverse effect level (NOAEL) (subchronic, duration: 13 weeks, oral, diet, M/F, Crj:CD, food consumption) of 493 mg/kg-day. For `CC=O` [Acetaldehyde], the NOAEL (subchronic, duration: 11 weeks, oral, drinking water, other) was determined as 120 mg/kg-day. Turning to `CC(=NC#N)N(C)Cc1ccc(Cl)nc1` [Acetamiprid], where the note is “reproduction developmental, duration: 16 days, oral, gavage, F, other”, the NOAEL turned out to be 2.5 mg/kg-day. `CCCCOC(=O)CC(CC(=O)OCCCC)(OC(C)=O)C(=O)OCCCC` [Acetyl tributyl citrate] yielded an NOAEL (subchronic, duration: 90 days, oral, body weight) of 100 mg/kg-day. As a reminder, the LOAEL is the lowest tested level that showed an adverse finding. For the compound `CC1=C(/C=C/C(C)=C/C=C/C(C)=C/C=C/C=C(C)/C=C/C=C(\C)C=O)C(C)(C)CCC1` [Apocarotenal], the NOAEL (subchronic, duration: 13 weeks, histopathology: nonneoplastic) was 30 mg/kg-day. The compound also came in with an LOAEL (subchronic, duration: 13 weeks, oral, M/F, Sprague-Dawley, histopathology: nonneoplastic) of 10 mg/kg-day. Turning to `CC(=O)Nc1ccc(S(=O)(=O)[O-])c2cc(S(=O)(=O)[O-])c(N=Nc3ccc(N=Nc4ccc(S(=O)(=O)[O-])cc4)c4ccc(S(=O)(=O)[O-])cc34)c(O)c12.[Na+].[Na+].[Na+].[Na+]` [Black PN], the NOAEL (chronic, duration: 2 years, oral, diet, M/F, no effects) is 500 mg/kg-day. Regarding `O=C1C(c2[nH]c3ccc(S(=O)(=O)[O-])cc3c2O)=Nc2ccc(S(=O)(=O)[O-])cc21.[Na+].[Na+]` [C.I. Acid Blue 74], the NOAEL by setting is: under setting [7], 500 mg/kg-day; (chronic, duration: 2 years, oral, diet, growth) 500 mg/kg-day. The compound `OC1OC[C@@H](O)[C@@H](O)[C@H]1O` (stereo partly drawn) [D-Ribose] displayed an NOAEL (subchronic, duration: 90 days, oral, diet, M/F, Wistar, body weight) of 3600 mg/kg-day. For the compound `CCCCC(CC)COC(=O)c1ccccc1C(=O)OCC(CC)CCCC` (stereo not drawn) [Di(2-ethylhexyl) phthalate], the NOAEL (developmental, Sprague-Dawley, development) was determined as 5 mg/kg-day. In turn, `CC(C)CCCCCCOC(=O)c1ccccc1C(=O)OCCCCCCC(C)C` [Diisononyl phthalate] gave an NOAEL (chronic, duration: 2 years, M/F, Fischer 344, histopathology: nonneoplastic) of 15 mg/kg-day. Where the note is “subchronic, duration: 13 weeks, oral, diet”, `CCOC(=O)CCCSC(C)=O` [Ethyl 4-(acetylthio)butyrate] yielded an NOEL of 6.5 mg/kg-day. Besides, the NOAEL by setting is: (subchronic, duration: 90 days, oral) 6.63 mg/kg-day; under setting [4], 6.63 mg/kg-day. Consider `C#CCN1C(=O)COc2cc(F)c(N3C(=O)C4=C(CCCC4)C3=O)cc21` [Flumioxazin], for which the NOAEL runs as follows: (chronic, duration: 2 years, hematological) 1.8 mg/kg-day; (developmental, development) 3 mg/kg-day; (subchronic, duration: 90 days, oral, hematological) 2.2 mg/kg-day. The compound `O=Cc1ccco1` [Furfural] came in with an NOEL (subchronic, duration: 90 days, oral, diet, M/F, Fischer 344, hematological) of 54 mg/kg-day. Consider `OC[C@H]1O[C@H](OC[C@H]2O[C@@H](O)[C@@H](O)[C@@H](O)[C@@H]2O[C@@H]2O[C@H](CO)[C@@H](O)[C@H](O)[C@@H]2O)[C@H](O)[C@@H](O)[C@H]1O` [Galactomannan], for which, for the setting “short-term, duration: 28 days, M/F, Sprague-Dawley, clinical chemistry”, the NOEL was determined as 230 mg/kg-day.

With `Cl.N[C@@H](C=O)[C@@H](O)[C@H](O)[C@H](O)CO` [Glucosamine hydrochloride], the no-observed-adverse-effect level (NOAEL) (chronic, duration: 52 weeks) turned out to be 2130 mg/kg-day. As to `O=C1O[C@H]([C@H](O)CO)C(O)=C1O` [Isoascorbic acid], the NOAEL (chronic, duration: 2 years, oral, drinking water, M/F, Fischer 344, body weight) turned out to be 650 mg/kg-day. Compound `CCCCC/C=C/C/C=C/CCCCCCCC(=O)O[C@H](COC(=O)CCCCCCCCCCCCCCC)COP(=O)([O-])OCC[N+](C)(C)C` [Lecithin] showed an NOAEL (chronic, duration: 24 weeks, oral, gavage, Wistar, no effects) of 3750 mg/kg-day. With `CCCCCC1C(=O)CCC1CC(=O)OC` (stereo not drawn) [Methyl dihydrojasmonate], the NOAEL under setting [3] amounted to 100 mg/kg-day.

Turning to `CCCCCCCCCCCC[N+](C)(C)[O-]` [N,N-Dimethyldodecylamine-N-oxide], the NOAEL under setting [7] worked out at 50 mg/kg-day. Regarding `CC(C)=CCC/C(C)=C/CNC(=O)C1CC1` [N-3,7-Dimethyl-2,6-octadienyl cyclopropylcarboxamide, (2E)-], the NOAEL under setting [4] was determined as 73.3 mg/kg-day.

Regarding `CCCC(CCC)NC(=O)c1ccc2c(c1)OCO2` [N-(1-Propylbutyl)-1,3-benzodioxole-5-carboxamide], the NOEL (chronic, duration: 93 days) came out at 20 mg/kg-day. In turn, `COc1ccc(CCC(=O)c2c(O)cc(O[C@@H]3O[C@H](CO)[C@@H](O)[C@H](O)[C@H]3O[C@@H]3O[C@@H](C)[C@H](O)[C@@H](O)[C@H]3O)cc2O)cc1O` [Neohesperidin dihydrochalcone] returned an NOAEL (repeat dose other, no effects) of 500 mg/kg-day.

Consider `O=C1CN(/N=C/c2ccc([N+](=O)[O-])o2)C(=O)N1` [Nitrofurantoin], for which, for the setting “reproduction developmental, oral, reproduction”, the LEL stood at 10 mg/kg-day.

As to `C1CCNCC1` [Piperidine], the NOAEL (subchronic, duration: 90 days, oral, M/F, Sprague-Dawley, clinical chemistry) was found to be 5 mg/kg-day. `O=C(/C=C/c1ccc(O)c(O)c1)O[C@H](Cc1ccc(O)c(O)c1)C(=O)O` [Rosmarinic acid] showed an NOAEL (subchronic, duration: 90 days, oral, gavage, M/F, Sprague-Dawley, no effects) of 300 mg/kg-day.

Consider `C=C1CCC2(C(C)C)CC12` (stereo not drawn) [Sabinen], for which the NOAEL (subchronic, duration: 90 days, oral, diet, M/F, Sprague-Dawley, hematological) is 222 mg/kg-day.
